Measured values published in patent US5840745A, “Hydrosoluble 3-arylidene-2-oxindole derivatives as tyrosine kinase inhibitors” (Pharmacia S. p. A., priority 1995, dated 1998).
Where a name gives a salt, the structure may show the parent alone.

Columns and labels:
[1] = biological target: p45 v-abl tyrosine kinase; assay: in vitro p45 v-abl kinase assay ((Val^5)-Angiotension II phosphorylation); type: biochemical, Abelson murine leukaemia virus; details: 40 ng purified abl-kinase; peptide (2 Mm) and ATP (50 μM); 30° C., pH 8.0; triplicated determinations; read-out: IC50 v-abl, inhibition of p45 v-abl kinase
Procedure: p45 v-abl Kinase Purification
The enzyme used in our test was the p45 v-abl tyrosine kinase which represents the catalytic domain of the Abelson tyrosine kinase (isolated from the Abelson murine leukaemia virus). The p45 v-abl kinase was produced and isolated as described by Wang et al. in J. Biol. Chem. 260, 64 (1985) and by Ferguson et al. in J. Biol. Chem. 260, 3652 (1985) and in Biochem. J. 257, 321 (1989).
(Val^5)-Angiotension II phosphorylation was performed by incubation with 40 ng of purified abl-kinase and (γ-^32 p)-ATP, in 50 μl of buffer containing Tris-HCl 25 mM, pH 8.0, MgCl2 10 mM and dithiothreitol 0.1 mM (kinase buffer). The reaction mixture was incubated for the indicated time at 30° C. and the reaction stopped by adding 50 μl of 5% trichloroacetic acid. After a brief incubation on ice, tubes were centrifuged. The supernatants were spotted on phosphocellulose paper squares (Whatman P-81) and washed extensively in acetic acid. The radioactivity bound to dried phosphocellulose squares was measured in a liquid scintillation counter. IC50 values were calculated from triplicated determinations of each experimental point. Each inhibitor was tested at concentrations ranging from […] in the presence of fixed concentrations of peptide (2 Mm) and ATP (50 μM). […]

[2] = system: K562 cells (human chronic myeloid leukemia); assay: K562 cell growth inhibition assay; type: cell-based; details: 72 h, 10000 cells/well, cell count versus untreated control cells
Procedure: K562 Cell Growth Inhibition Assay
K562 cells, a human myelogenous leukemia cell line, were seeded into a 24 wells tissue culture plate (Falcon 3047) (10000/well) in the presence of increasing concentrations of the compounds. After 72 h, cells were harvested and were counted using a cell counter (Coulter Counter--ZM). The percent of inhibition was evaluated in respect to the untreated control cells.
The inhibitory activity data for two representative compounds according to the present invention, obtained both in the in vitro p45 v-abl kinase assay and the in vivo human chronic myeloid leukemia K562 cell growth inhibition assay described above, are set out in the following Table I.

| SMILES | IC50 [1] | IC50 [2] |
| --- | --- | --- |
| COc1ccc2[nH]cc(C=C3C(=O)Nc4ccc(NC(=O)CCN5CCCCC5)cc43)c2c1 [5-(3-piperidinopropionylamino)-3-(5-methoxyindol-3-ylmethylene)-2-oxindole.HCl] | 1730 nM | 3700 nM |
| CCOC(=O)c1ccc2c(c1)C(=Cc1c[nH]c3ccc(OC)cc13)C(=O)N2 [5-carboethoxy-3-(5-methoxyindol-3-ylmethylene)-2-oxindole] | 1990 nM | 2340 nM |
